Tests used:
Assay in all cases: Inhibition Assay of PI3K
[1] = target: Phosphatidylinositol 4,5-bisphosphate 3-kinase catalytic subunit gamma isoform (Homo sapiens, UniProt P48736)
[2] = target: T1, Phosphatidylinositol 4,5-bisphosphate 3-kinase catalytic subunit delta isoform (Homo sapiens, UniProt O00329)
T1 sequence (O00329 whole entry): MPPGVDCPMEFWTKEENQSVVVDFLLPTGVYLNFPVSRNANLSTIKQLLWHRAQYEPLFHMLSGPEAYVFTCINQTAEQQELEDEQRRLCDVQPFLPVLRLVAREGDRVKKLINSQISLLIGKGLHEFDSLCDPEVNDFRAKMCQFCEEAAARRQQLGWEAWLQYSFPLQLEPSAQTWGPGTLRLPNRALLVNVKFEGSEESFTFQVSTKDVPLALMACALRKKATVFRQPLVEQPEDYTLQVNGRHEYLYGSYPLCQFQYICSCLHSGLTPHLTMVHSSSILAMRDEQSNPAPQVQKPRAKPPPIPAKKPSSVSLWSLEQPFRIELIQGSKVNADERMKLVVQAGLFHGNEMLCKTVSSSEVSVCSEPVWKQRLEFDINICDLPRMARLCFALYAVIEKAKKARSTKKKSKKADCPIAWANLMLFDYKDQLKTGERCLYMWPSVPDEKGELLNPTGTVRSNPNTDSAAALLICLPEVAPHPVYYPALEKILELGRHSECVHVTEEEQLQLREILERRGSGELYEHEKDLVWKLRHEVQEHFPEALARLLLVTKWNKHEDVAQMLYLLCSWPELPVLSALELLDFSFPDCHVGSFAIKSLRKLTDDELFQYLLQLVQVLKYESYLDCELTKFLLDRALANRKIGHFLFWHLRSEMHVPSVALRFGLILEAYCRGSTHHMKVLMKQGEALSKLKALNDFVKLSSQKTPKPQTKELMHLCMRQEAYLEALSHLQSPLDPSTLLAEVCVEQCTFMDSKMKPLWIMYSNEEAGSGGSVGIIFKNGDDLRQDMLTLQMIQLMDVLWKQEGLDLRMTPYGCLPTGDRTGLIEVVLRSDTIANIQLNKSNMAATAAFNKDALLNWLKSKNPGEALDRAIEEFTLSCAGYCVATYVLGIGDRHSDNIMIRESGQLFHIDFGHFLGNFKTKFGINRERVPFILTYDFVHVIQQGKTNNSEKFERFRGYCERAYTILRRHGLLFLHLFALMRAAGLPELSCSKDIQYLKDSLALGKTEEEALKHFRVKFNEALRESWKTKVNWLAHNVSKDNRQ

[3] = target: Phosphatidylinositol 4,5-bisphosphate 3-kinase catalytic subunit alpha isoform (Homo sapiens, UniProt P42336)
[4] = target: Phosphatidylinositol 4,5-bisphosphate 3-kinase catalytic subunit beta isoform (Homo sapiens, UniProt P42338)

Measured: IC50

Phosphatidylinositol 4,5-bisphosphate 3-kinase catalytic subunit beta isoform, sequence (P42338 whole entry, canonical isoform): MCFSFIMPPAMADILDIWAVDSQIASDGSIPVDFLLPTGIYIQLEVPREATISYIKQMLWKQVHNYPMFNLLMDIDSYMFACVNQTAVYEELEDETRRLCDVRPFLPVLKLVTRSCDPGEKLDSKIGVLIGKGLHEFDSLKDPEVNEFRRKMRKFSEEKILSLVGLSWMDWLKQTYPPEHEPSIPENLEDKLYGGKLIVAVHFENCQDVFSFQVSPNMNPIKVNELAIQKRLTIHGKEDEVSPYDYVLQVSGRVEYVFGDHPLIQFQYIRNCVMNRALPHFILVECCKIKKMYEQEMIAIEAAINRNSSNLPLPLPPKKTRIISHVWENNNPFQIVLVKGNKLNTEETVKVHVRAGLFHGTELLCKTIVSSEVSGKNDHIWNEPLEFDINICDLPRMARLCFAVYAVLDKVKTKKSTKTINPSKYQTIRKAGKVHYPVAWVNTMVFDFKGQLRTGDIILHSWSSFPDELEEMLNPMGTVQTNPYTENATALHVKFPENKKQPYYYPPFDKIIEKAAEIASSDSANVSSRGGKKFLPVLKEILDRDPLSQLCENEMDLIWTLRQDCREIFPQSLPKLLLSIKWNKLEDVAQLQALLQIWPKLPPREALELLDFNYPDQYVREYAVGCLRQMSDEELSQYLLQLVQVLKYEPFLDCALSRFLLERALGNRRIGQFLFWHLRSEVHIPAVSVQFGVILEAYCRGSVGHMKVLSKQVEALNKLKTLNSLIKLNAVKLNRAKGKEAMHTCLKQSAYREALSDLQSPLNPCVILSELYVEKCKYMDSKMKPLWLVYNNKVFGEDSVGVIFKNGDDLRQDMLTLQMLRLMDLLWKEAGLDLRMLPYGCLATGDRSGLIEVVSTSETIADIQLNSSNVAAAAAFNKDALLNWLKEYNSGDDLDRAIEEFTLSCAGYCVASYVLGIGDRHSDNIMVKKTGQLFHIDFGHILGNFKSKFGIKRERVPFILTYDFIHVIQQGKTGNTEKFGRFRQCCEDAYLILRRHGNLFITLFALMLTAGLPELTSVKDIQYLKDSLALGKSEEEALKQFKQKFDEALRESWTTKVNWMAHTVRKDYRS
Phosphatidylinositol 4,5-bisphosphate 3-kinase catalytic subunit gamma isoform, sequence (P48736 whole entry, canonical isoform): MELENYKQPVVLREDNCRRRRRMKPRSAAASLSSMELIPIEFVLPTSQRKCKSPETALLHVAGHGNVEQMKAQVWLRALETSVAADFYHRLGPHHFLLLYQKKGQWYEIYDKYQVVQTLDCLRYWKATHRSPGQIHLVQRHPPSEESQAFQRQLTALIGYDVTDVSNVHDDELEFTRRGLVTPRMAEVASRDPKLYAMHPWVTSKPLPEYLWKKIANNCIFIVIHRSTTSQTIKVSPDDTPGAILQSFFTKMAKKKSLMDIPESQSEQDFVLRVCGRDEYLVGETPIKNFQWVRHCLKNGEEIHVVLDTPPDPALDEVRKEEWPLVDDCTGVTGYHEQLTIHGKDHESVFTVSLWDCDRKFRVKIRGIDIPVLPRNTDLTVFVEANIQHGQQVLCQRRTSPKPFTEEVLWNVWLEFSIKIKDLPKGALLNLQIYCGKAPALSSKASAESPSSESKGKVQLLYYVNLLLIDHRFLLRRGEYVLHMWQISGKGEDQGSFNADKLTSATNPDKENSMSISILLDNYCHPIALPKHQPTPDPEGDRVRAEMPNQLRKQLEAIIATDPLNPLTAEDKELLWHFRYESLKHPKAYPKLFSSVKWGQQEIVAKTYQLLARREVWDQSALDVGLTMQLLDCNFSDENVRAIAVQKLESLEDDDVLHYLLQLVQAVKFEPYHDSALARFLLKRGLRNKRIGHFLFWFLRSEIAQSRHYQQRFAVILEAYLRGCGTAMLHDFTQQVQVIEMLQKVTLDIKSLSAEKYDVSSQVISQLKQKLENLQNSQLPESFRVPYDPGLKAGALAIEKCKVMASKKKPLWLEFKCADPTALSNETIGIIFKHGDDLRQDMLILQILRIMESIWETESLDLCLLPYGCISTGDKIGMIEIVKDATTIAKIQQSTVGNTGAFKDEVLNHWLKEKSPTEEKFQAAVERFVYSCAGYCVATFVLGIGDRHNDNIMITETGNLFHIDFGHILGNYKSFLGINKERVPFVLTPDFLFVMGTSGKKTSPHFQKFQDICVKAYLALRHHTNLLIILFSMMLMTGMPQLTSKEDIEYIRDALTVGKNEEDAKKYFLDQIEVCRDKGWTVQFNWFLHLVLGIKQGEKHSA
Phosphatidylinositol 4,5-bisphosphate 3-kinase catalytic subunit alpha isoform, sequence (P42336 whole entry, canonical isoform): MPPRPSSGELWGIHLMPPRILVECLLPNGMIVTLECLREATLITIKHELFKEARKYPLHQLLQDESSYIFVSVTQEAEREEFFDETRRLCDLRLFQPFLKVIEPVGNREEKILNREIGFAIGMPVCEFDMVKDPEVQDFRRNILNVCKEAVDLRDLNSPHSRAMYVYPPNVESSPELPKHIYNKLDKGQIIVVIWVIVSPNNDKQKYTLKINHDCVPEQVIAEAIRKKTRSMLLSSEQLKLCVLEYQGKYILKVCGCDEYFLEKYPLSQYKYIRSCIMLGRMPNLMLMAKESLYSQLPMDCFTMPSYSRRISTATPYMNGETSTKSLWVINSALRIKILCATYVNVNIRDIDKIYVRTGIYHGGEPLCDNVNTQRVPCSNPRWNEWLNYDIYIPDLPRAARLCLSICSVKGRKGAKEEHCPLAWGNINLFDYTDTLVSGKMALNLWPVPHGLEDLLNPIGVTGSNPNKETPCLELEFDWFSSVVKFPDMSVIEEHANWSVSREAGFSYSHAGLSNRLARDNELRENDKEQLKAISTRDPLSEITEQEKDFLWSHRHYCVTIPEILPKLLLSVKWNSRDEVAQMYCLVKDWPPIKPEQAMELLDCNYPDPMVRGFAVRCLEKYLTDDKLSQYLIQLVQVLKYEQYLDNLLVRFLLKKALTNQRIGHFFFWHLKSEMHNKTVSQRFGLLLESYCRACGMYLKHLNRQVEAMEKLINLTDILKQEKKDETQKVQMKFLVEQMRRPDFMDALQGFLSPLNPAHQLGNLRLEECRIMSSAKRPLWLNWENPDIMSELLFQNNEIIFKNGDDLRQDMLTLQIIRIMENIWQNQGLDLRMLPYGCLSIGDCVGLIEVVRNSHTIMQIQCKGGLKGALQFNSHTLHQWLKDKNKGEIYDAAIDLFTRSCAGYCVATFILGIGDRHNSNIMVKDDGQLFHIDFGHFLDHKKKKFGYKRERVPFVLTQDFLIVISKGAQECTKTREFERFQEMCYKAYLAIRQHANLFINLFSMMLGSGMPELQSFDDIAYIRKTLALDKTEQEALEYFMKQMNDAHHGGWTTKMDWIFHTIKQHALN

O=C(c1cnc2ccc(-c3ccc4c(Nc5ccccc5)nsc4c3)cn12)N1CCOCC1 [US11547697, Compound 505]
> 10 µM: all assays above

C[C@H]1CN(c2cnc3scc(-c4ccc5oc(N)nc5c4)c3c2)CCN1 [US11547697, Compound 399]
> 10 µM: all assays above

C[C@H]1CN(c2cnc3cccc(-c4ccc5nc(N)oc5c4)c3n2)CCN1 [US11547697, Compound 343]
> 10 µM: [1] | [2] | [3]

COc1ccc(-c2ccc3ncc(C(=O)N4CCOCC4)n3c2)cc1NS(C)(=O)=O [US11547697, Compound 456]
> 10 µM: all assays above

Cc1nc2ccc(-c3ccc4oc(N)nc4c3)cn2c1C(=O)N1CCN(C)CC1 [US11547697, Compound 91]
> 10 µM: all assays above

Nc1nc2cc(-c3ccc4[nH]nc(N)c4c3)ccc2o1 [US11547697, Compound 427]
> 10 µM: all assays above

CS(=O)(=O)Nc1cccc(-c2ccc3ncc(C(=O)N4CCOCC4)n3c2)c1 [US11547697, Compound 443]
> 10 µM: all assays above

Nc1nc2cc(-c3cnc4ncc(-c5ccncc5)n4c3)ccc2o1 [US11547697, Compound 61]
> 10 µM: all assays above

Nc1nc2cc(-c3nc4cc(-c5cccnc5)cnc4s3)ccc2o1 [US11547697, Compound 402]
> 10 µM: all assays above

O=C(c1cnc2ccc(-c3ccc4oc(Nc5ccccc5)nc4c3)cn12)N1CCOCC1 [US11547697, Compound 407]
> 10 µM: [1] | [2] | [3]

Nc1nc2cc(-c3ccc4nnc(C(=O)N5CCOCC5)n4c3)ccc2o1 [US11547697, Compound 282]
> 10 µM: all assays above

Nc1ncc(-c2ccc3oc(N)nc3c2)cn1 [US11547697, Compound 233]
> 10 µM: [2] | [3] | [4]

Nc1cn2cc(-c3ccc4nc(N)oc4c3)ccc2n1 [US11547697, Compound 247]
> 10 µM: [2] | [3]

Nc1nc2cc(-c3ccc4ncn(CCCN5CCOCC5)c(=O)c4c3)ccc2o1 [US11547697, Compound 290]
> 10 µM: [1] | [2] | [4]

Cc1nc(NC(=O)N2CCC[C@H]2C(N)=O)sc1-c1ccc2oc(N)nc2c1 [US11547697, Compound 311]
> 10 µM: [1] | [2] | [4]

Nc1nsc2c(-c3ccc4ncc(C(=O)N5CCOCC5)n4c3)cccc12 [US11547697, Compound 474]
> 10 µM: [1] | [2] | [4]

Nc1nc2ccc(-c3ccc4ncn(C5CCOCC5)c(=O)c4c3)cc2o1 [US11547697, Compound 63]
> 10 µM: [1] | [2] | [4]

CC(=O)Nc1nc2cc(-c3ccc4oc(N)nc4c3)ccc2s1 [US11547697, Compound 250]
> 10 µM: [2] | [3] | [4]

CN1CCN(c2nc3cc(-c4ccc5oc(N)nc5c4)ccc3c(=O)n2C)CC1 [US11547697, Compound 79]
> 10 µM: [1] | [2] | [4]

CCN1CCN(c2cnc3ccc(-c4ccc5oc(N)nc5c4)cc3n2)C(=O)C1 [US11547697, Compound 391]
> 10 µM: [1] | [2] | [4]

Nc1nc2cc(-c3cccc4[nH]nc(N)c34)ccc2o1 [US11547697, Compound 236]
> 10 µM: [1] | [3] | [4]

COc1ncc(-c2ccc3ncc(C(=O)N4CCOCC4)n3c2)cc1N [US11547697, Compound 414]
> 10 µM: [1] | [2] | [4]

CN1CCN(CCCn2cnc3ccc(-c4ccc5oc(N)nc5c4)cc3c2=O)CC1 [US11547697, Compound 291]
> 10 µM: [1] | [2] | [4]

Cc1ncccc1-c1cnc2ccc(-c3ccc4oc(N)nc4c3)cc2n1 [US11547697, Compound 185]
> 10 µM: [1] | [2] | [4]

CN1CCN(C(=O)c2cnc3ccc(-c4ccc5oc(N)nc5c4)cc3n2)CC1 [US11547697, Compound 157]
> 10 µM: [1] | [2] | [4]

CN1CCN(C(=O)c2cnc3cnc(-c4ccc5oc(N)nc5c4)cn23)CC1 [US11547697, Compound 123]
> 10 µM: [1] | [2] | [4]

NC(=O)[C@@H]1CCCN1c1cnc2ccc(-c3ccc4oc(N)nc4c3)cc2n1 [US11547697, Compound 257]
> 10 µM: [1] | [2] | [4]

Nc1nc2cc(-c3ccc4ncc(C(=O)N5CCOCC5)nc4c3)ccc2o1 [US11547697, Compound 158]
> 10 µM: [1] | [2] | [4]

O=C(c1cnc2ccc(-c3ccc4oc(NC5CC5)nc4c3)cn12)N1CCOCC1 [US11547697, Compound 409]
> 10 µM: [1] | [2] | [4]

COc1ccc(-c2ccc3ncc(C(=O)N4CCOCC4)n3c2)cc1S(=O)(=O)Nc1ccccc1 [US11547697, Compound 444]
> 10 µM: [1] | [2] | [4]

O=C(c1cnc2ccc(-c3cnc(Cl)c4[nH]ncc34)cn12)N1CCOCC1 [US11547697, Compound 516]
> 10 µM: [1] | [2] | [4]

Nc1nc2cc(-c3ccc4ncc(N5CCOCC5)n4c3)ccc2o1 [US11547697, Compound 53]
> 10 µM: [1] | [2] | [4]

Nc1cc(-c2ccc3ncc(C(=O)N4CCOCC4)n3c2)cnc1Cl [US11547697, Compound 415]
> 10 µM: [1] | [2] | [4]

Nc1nc2ccc(-c3cc(F)c4ncc(C(=O)N5CCOCC5)n4c3)cc2o1 [US11547697, Compound 439]
> 10 µM: [1] | [2] | [4]

CCN(CC)CCn1cnc2ccc(-c3ccc4oc(N)nc4c3)cc2c1=O [US11547697, Compound 224]
> 10 µM: [1] | [2] | [4]

Nc1ncc(-c2ccc3ncc(C(=O)N4CCOCC4)n3c2)cc1C(F)(F)F [US11547697, Compound 410]
> 10 µM: [1] | [2] | [4]
